Active and inactive are the calls of the source. The rule behind the calls is not given here.
Target: Beta-2 adrenergic receptor (Cavia porcellus, UniProt Q8K4Z4)
Sequence (Q8K4Z4 whole entry): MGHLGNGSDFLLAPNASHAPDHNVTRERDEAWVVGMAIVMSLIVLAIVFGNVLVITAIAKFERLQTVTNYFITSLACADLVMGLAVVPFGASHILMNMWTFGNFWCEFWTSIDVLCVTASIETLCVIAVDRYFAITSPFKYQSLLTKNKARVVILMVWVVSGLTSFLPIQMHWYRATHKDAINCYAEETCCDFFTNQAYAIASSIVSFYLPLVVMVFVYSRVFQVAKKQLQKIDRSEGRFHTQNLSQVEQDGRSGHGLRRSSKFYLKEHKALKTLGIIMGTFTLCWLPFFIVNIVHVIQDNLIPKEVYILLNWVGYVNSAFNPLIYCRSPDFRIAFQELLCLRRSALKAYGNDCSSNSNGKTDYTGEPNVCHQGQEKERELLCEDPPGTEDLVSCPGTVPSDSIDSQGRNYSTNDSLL
Assay: Antagonist activity at beta-2 adrenergic receptor in guinea pig tracheal strip assessed as inhibition of isoprenaline-induced effect
Settings: read-out: pA2 (converted)
In the case of `CC(C)NCC(O)COc1cc2ccccc2cc1OCC(O)CNC(C)C.Cl` (stereo not drawn), the Kb is reported as 158 nM.
`CC(C)NCC(O)COc1cc2c(cc1OCC(O)CNC(C)C)CCCC2` (stereo not drawn) showed a Kb of 129 nM.

Target: Beta-1 adrenergic receptor (Cavia porcellus, UniProt H0W3H1)
Sequence (H0W3H1 1-470): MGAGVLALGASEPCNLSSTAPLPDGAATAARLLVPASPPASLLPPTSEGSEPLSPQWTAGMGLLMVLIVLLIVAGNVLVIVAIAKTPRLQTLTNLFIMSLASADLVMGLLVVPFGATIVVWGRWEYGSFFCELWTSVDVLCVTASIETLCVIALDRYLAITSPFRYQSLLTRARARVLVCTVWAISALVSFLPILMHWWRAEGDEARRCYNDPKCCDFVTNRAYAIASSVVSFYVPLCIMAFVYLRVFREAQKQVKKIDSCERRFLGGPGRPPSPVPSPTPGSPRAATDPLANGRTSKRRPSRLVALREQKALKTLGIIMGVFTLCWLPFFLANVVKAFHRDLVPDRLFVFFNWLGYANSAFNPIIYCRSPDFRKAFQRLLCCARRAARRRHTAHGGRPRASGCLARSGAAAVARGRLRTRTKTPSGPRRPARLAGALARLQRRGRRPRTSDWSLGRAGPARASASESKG
Assay: Antagonist activity at […] adrenergic receptor in guinea pig right atrium assessed as inhibition of isoprenaline-induced effect
Design: species or system Cardiac atrium
Settings: not given
`CC(C)NCC(O)COc1cc2ccccc2cc1OCC(O)CNC(C)C.Cl` (stereo not drawn) showed a pA2 of 5.45.
In the case of `CC(C)NCC(O)COc1cc2c(cc1OCC(O)CNC(C)C)CCCC2` (stereo not drawn), the pA2 is reported as 5.83.

Test system: Right cardiac atrium
Assay: Antiarrhythmic activity in guinea pig right atrium assessed as inhibition of ouabain-induced arrhythmia
Assay type: functional, Cavia porcellus
Settings: not given
For `Cc1ccc(OCC(O)CNC(C)C)c(OCC(O)CNC(C)C)c1.Cl` (stereo not drawn), the “-logMIC” value was 4.3.
In the case of `CC(C)NCC(O)COc1cc2ccccc2cc1OCC(O)CNC(C)C.Cl` (stereo not drawn), the “-logMIC” value is reported as 5.3.
For `CC(C)NCC(O)COc1cccc(C(C)C)c1OCC(O)CNC(C)C.Cl` (stereo not drawn), the “-logMIC” value was 5.
For `Cc1cccc(OCC(O)CNC(C)C)c1OCC(O)CNC(C)C.Cl` (stereo not drawn), the “-logMIC” value was 4.7.
In the case of `CC(C)NCC(O)COc1ccccc1OCC(O)CNC(C)C` (stereo not drawn), the “-logMIC” value is reported as 3.7.
For `CC(C)NCC(O)COc1cc2c(cc1OCC(O)CNC(C)C)CCCC2` (stereo not drawn), the “-logMIC” value was 5.
For `CC(C)NCC(O)COc1ccc(C(C)C)cc1OCC(O)CNC(C)C.Cl` (stereo not drawn), the “-logMIC” value was 4.7.

Test system: Right cardiac atrium
Assay: Negative chronotropic activity in guinea pig right atrium assessed as atrial rate at MEC after 30 mins
Assay type: functional, tissue-based
Settings: Cavia porcellus
For `Cc1ccc(OCC(O)CNC(C)C)c(OCC(O)CNC(C)C)c1.Cl` (stereo not drawn), the Activity was “Active”.
In the case of `CC(C)NCC(O)COc1cc2ccccc2cc1OCC(O)CNC(C)C.Cl` (stereo not drawn), the Activity is reported as “Active”.
For `CC(C)NCC(O)COc1cccc(C(C)C)c1OCC(O)CNC(C)C.Cl` (stereo not drawn), the Activity was “Active”.
For `Cc1cccc(OCC(O)CNC(C)C)c1OCC(O)CNC(C)C.Cl` (stereo not drawn), the Activity was “Active”.
With `CC(C)NCC(O)COc1ccccc1OCC(O)CNC(C)C` (stereo not drawn) the Activity was “Active”.
With `CC(C)NCC(O)COc1cc2c(cc1OCC(O)CNC(C)C)CCCC2` (stereo not drawn) the Activity was “Active”.
With `CC(C)NCC(O)COc1cccc2ccccc12` (stereo not drawn) the Activity was “Active”.
In the case of `CC(C)NCC(O)COc1ccc(C(C)C)cc1OCC(O)CNC(C)C.Cl` (stereo not drawn), the Activity is reported as “Active”.

Test system: Right cardiac atrium
Assay: Negative inotropic activity in guinea pig right atrium assessed as contractile force at MEC after 30 mins
Assay type: functional, tissue-based
Settings: Cavia porcellus
In the case of `Cc1ccc(OCC(O)CNC(C)C)c(OCC(O)CNC(C)C)c1.Cl` (stereo not drawn), the Activity is reported as “Active”.
For `CC(C)NCC(O)COc1cc2ccccc2cc1OCC(O)CNC(C)C.Cl` (stereo not drawn), the Activity was “Active”.
For `CC(C)NCC(O)COc1cccc(C(C)C)c1OCC(O)CNC(C)C.Cl` (stereo not drawn), the Activity was “Active”.
With `Cc1cccc(OCC(O)CNC(C)C)c1OCC(O)CNC(C)C.Cl` (stereo not drawn) the Activity was “Active”.
With `CC(C)NCC(O)COc1ccccc1OCC(O)CNC(C)C` (stereo not drawn) the Activity was “Active”.
With `CC(C)NCC(O)COc1cc2c(cc1OCC(O)CNC(C)C)CCCC2` (stereo not drawn) the Activity was “Active”.
In the case of `CC(C)NCC(O)COc1cccc2ccccc12` (stereo not drawn), the Activity is reported as “Active”.
For `CC(C)NCC(O)COc1ccc(C(C)C)cc1OCC(O)CNC(C)C.Cl` (stereo not drawn), the Activity was “Active”.

Test system: not listed separately
Assay: Local anesthetic activity in desheathed frog sciatic nerve
Assay type: functional, tissue-based, Anura
Settings: not given
Compound `Cc1ccc(OCC(O)CNC(C)C)c(OCC(O)CNC(C)C)c1.Cl` (stereo not drawn) has a pEC50 of 1.69.
`CC(C)NCC(O)COc1cc2ccccc2cc1OCC(O)CNC(C)C.Cl` (stereo not drawn) showed a pEC50 of 2.2.
For `CC(C)NCC(O)COc1cccc(C(C)C)c1OCC(O)CNC(C)C.Cl` (stereo not drawn), the pEC50 was 2.
Work on `Cc1cccc(OCC(O)CNC(C)C)c1OCC(O)CNC(C)C.Cl` (stereo not drawn) yielded a pEC50 of 1.8.
For `CC(C)NCC(O)COc1ccccc1OCC(O)CNC(C)C` (stereo not drawn), the pEC50 was 1.29.
With `CC(C)NCC(O)COc1cc2c(cc1OCC(O)CNC(C)C)CCCC2` (stereo not drawn) the pEC50 was 2.02.
For `CC(C)NCC(O)COc1ccc(C(C)C)cc1OCC(O)CNC(C)C.Cl` (stereo not drawn), the pEC50 was 2.07.

Test system: not listed separately
Assay: 1-octanol-phosphate buffer apparent partition coefficient, log P of the compound at pH 7.4
Assay type: physicochemical
Settings: not given
`Cc1ccc(OCC(O)CNC(C)C)c(OCC(O)CNC(C)C)c1.Cl` (stereo not drawn) gave a logD of -1.16.
With `CC(C)NCC(O)COc1cc2ccccc2cc1OCC(O)CNC(C)C.Cl` (stereo not drawn) the logD was -0.81.
For `CC(C)NCC(O)COc1cccc(C(C)C)c1OCC(O)CNC(C)C.Cl` (stereo not drawn), the logD was -0.747.
`Cc1cccc(OCC(O)CNC(C)C)c1OCC(O)CNC(C)C.Cl` (stereo not drawn) showed a logD of -1.17.
For `CC(C)NCC(O)COc1ccccc1OCC(O)CNC(C)C` (stereo not drawn), the logD was -1.19.
Compound `CC(C)NCC(O)COc1cc2c(cc1OCC(O)CNC(C)C)CCCC2` (stereo not drawn) has a logD of -0.726.
With `CC(C)NCC(O)COc1ccc(C(C)C)cc1OCC(O)CNC(C)C.Cl` (stereo not drawn) the logD was -0.833.

Test system: not listed separately
Assay: Apparent dissociation constant, pKa of the compound
Assay type: physicochemical
Settings: not given
In the case of `Cc1ccc(OCC(O)CNC(C)C)c(OCC(O)CNC(C)C)c1.Cl` (stereo not drawn), the pKa is reported as 9.24.
`CC(C)NCC(O)COc1cc2ccccc2cc1OCC(O)CNC(C)C.Cl` (stereo not drawn) showed a pKa of 9.18.
Work on `CC(C)NCC(O)COc1cccc(C(C)C)c1OCC(O)CNC(C)C.Cl` (stereo not drawn) yielded a pKa of 9.24.
With `Cc1cccc(OCC(O)CNC(C)C)c1OCC(O)CNC(C)C.Cl` (stereo not drawn) the pKa was 9.23.
For `CC(C)NCC(O)COc1ccccc1OCC(O)CNC(C)C` (stereo not drawn), the pKa was 9.22.
Work on `CC(C)NCC(O)COc1cc2c(cc1OCC(O)CNC(C)C)CCCC2` (stereo not drawn) yielded a pKa of 9.17.
`CC(C)NCC(O)COc1ccc(C(C)C)cc1OCC(O)CNC(C)C.Cl` (stereo not drawn) showed a pKa of 9.3.

Source: ChEMBL document CHEMBL3272054, “Beta-adrenoceptor studies. 2. Effects of alkyl substitution on beta-adrenoceptor blocking, antiarrhythmic, and local anesthetic activities of 1,1'-(o-phenylenedioxy)bis(3-isopropylamino-2-propanol)” (J Med Chem, 1977)
